Experimental data taken from patent US8748435B2, “Pyrazolo pyrimidine derivatives” (Novartis AG, priority 2011, dated 2014).
pIC50: −log10 of the molar value. Where a name gives a salt, the structure may show the parent alone.

Experiments:
human GPR4 [1] = biological target: T1, human GPR4 (Homo sapiens (Human), UniProt P46093); test: Human GPR4 binding assay ([3H]4 radioligand, membranes of 300.19 cells expressing human GPR4)
Procedure: a) Human GPR4 Binding Assay
(§1) Cells were grown in T175 flasks to a density of about 1×10^6 cells/mL in growth medium. The cells were harvested by centrifugation (3000 rpm for 30 minutes at 4° C.) and the pellet resuspended in ice cold buffer A (20 mM HEPES pH 7.8, 10 mM EDTA, 100 mM NaCl, 1 tab/40 mL protease inhibitor complete). […] The homogenate was centrifuged at 18000 rpm for 50 min at 4° C. and the membrane protein pellet resuspended in cold buffer A using the Polytron (2×20 seconds). The protein concentration is determined using the Bio Rad Protein Assay and human IgG as standard. The volume of the membrane protein suspension is adjusted to a final concentration of about 2 mg protein/mL. The suspension is then once again homogenized (Polytron) on ice at 25000 rpm for 20 seconds before being aliquoted and stored at −80° C.
(§2) Radio Ligand Binding Assay: Serial dilutions of compounds (stock in 10 mM DMSO) are prepared by first diluting the compounds in DMSO followed by a 1:50 dilution into assay buffer (10 mM HEPES, pH 8.0, 100 mM NaCl, 5 mM MgCl2, 1 mM CaCl2, 0.5% fatty acid-free BSA, 0.05% Tween-20). […] The desired amount of membranes (20 μg/well) is diluted with assay buffer. […] 100 μL of the membrane-suspension is added and the plate stirred for 60 minutes. […] The filter plate is washed 5 times with ice-cold wash buffer, dried and sealed at the bottom. Then 20 μL of Microscint 40 is added into each well and the top of the plate is sealed. Finally the plate is counted for 2 min/well in a TopCount NXT instrument (Packard Instruments). The data are analyzed using the GraphPad Prism™ software.

human GPR4 [2] = biological target: T1, human GPR4; test: Human GPR4 binding assay with additional human serum albumin (4% HSA); conditions: binding assay with 4% HSA
Procedure: as §1, §2
In a similar manner, a binding assay with additional human serum albumin (4% HSA) has been established.

human GPR4 [3] = biological target: T1, human GPR4; test: Cell-based assay for human GPR4 activity (pH-induced cAMP formation, HTRF, HeLa cells); conditions: HeLa cells stably expressing human GPR4, pH-induced cAMP
Procedure: b) Cell-Based Assay for Human GPR4 Activity
(§3) HeLa cells stably expressing human GPR4 were established by transfecting the cells with a construct containing the human GPR4 coding sequence. The cells were grown in Dulbecco's Modified Eagle Medium (DMEM)/HAM's tissue culture medium F12 (HAM's F12) supplemented with 10% fetal calf serum (FCS), 100 u/ml penicillin, 100 μg/ml streptomycin and 400 μg/ml G418 and 10 mM Hepes pH 8.0. pH-induced formation of cAMP was determined using the homogeneous time resolved fluorescence (HTRF) technology as provided by CisBio Inc. The cells were seeded in 384-well plates and cultured for 24 hours at 37° C., 5% CO2 before performing the assay. Medium was removed and 10 μl buffer A (Hepes buffered saline (HBS), 10 mM Hepes, pH 8, 2 mM 3-Isobutyl-1-methylxanthin (IBMX)) was added. For compound testing, buffer A with 2× concentrated compounds was used. Cells were incubated for 15 min at room temperature. 10 μl buffer B (HBS, 30 mM Hepes, specific pH) was added to reach the appropriate final pH for stimulation (see below) and incubation was continued for 15 min at room temperature. […] HBS: 130 mM NaCl, 0.9 mM NaH2 PO4, 5.4 mM KCl, 0.8 mM MgSO4, CaCl2 1.8 mM, 25 mM glucose, 10-30 mM Hepes. Adjustment of HBS buffers:
(§4) Compounds were diluted from fresh stock solutions at 10 mM in DMSO to 2 mM and then used for serial dilutions in DMSO.

mouse GPR4 = mouse GPR4 (Mus musculus (Mouse), UniProt Q8BUD0); test: Mouse GPR4 cAMP assay; type: cell-based
Procedure: as §3, §4
(§5) In a similar manner, assays for the mouse (m) and rat (r) GPR4 receptors have been established.

rat GPR4 = rat GPR4 (Rattus norvegicus (Rat), UniProt Q4KLH9); test: Rat GPR4 cAMP assay; type: cell-based; conditions: read-out: r cAMP IC50
Procedure: as §3, §4, §5

Human H3 = Human H3 (Homo sapiens (Human), UniProt Q9Y5N1); test: Human H3 binding assay (SPA, [3H]-R-alpha-Methylhistamine); conditions: 3 nM [3H]-R-alpha-Methylhistamine
Procedure: c) Human H3 Binding Assay
The Scintillation Proximity Binding Assay (SPA) assay was performed in a final volume of 50 μL per well in a 384-well polystyrene plate.
The final concentration of the radioligand was 3 nM. • 20 μL of a beads (PVT-WGA type A) and membranes mixed suspension in assay buffer, in order to get a final concentration of 10 μg/well of membranes and 200 μg/well of beads. As an example, 1471 μL membranes (Conc.: 5.1 mg/mL) and 1500 μL of bead suspension (Conc.: 100 mg/mL) are diluted to a final volume of 15 mL of assay buffer.
The plates were sealed and shaken at room temperature, then allowed to stand at room temperature for at least 1 hour. The plates were counted using a Perkin Elmer TopCount reader, each well being counted for 1 minute.

[4] = tested on: antigen-induced arthritis (knee swelling); test: Rat antigen-induced arthritis model; type: in vivo; conditions: oral gavage, AUC of R/L knee swelling ratio vs control
Procedure: e) GPR4 Activity in Rat Antigen-induced Arthritis Model Female Lewis rats were sensitised intradermally on the back at two sites to methylated bovine serum albumin (mBSA) homogenised 1:1 with complete Freund's adjuvant on days −21 and −14 (0.1 ml containing 1 mg/ml mBSA). On day 0, the right knee received […] of 10 mg/ml mBSA in 5% glucose solution (antigen injected knee), while the left knee received […] of 5% glucose solution alone (vehicle injected knee). The diameters of the left and right knees were then measured using calipers immediately after the intra-articular injections and again on days 2, 4 and 7. The compounds of the invention were administered twice daily by oral gavage; vehicle (saline) at 5 ml/kg, and dexamethasone at 0.3 mg/kg was given as a control. Right knee swelling was calculated as a ratio of left knee swelling, and the R/L knee swelling ratio plotted against time to give Area Under the Curve (AUC) graphs for control and treatment groups. The percentage inhibition of the individual treatment group AUCs were calculated vs the control group AUC (0% inhibition).

CFA-induced hyperalgesia = test: Established rat hyperalgesia model (CFA); type: in vivo; conditions: gavage
Procedure: f) Established Rat Hyperalgesia Model
Naïve withdrawal thresholds of both hind paws were determined by using an increasing pressure stimulus placed onto the dorsal surface of each paw using an analgesymeter. Delayed inflammatory pain was then induced by intra-plantar injection of 25 μl of complete Freund's adjuvant (CFA) into one hindpaw with the contralateral paw acting as the control. […] One hour later, paw withdrawal thresholds were re-measured on both the ipsilateral (CFA-injected) and contralateral (uninjected) paw; measurements were repeated at 3 hrs and 6 hrs post dosing. The reversal of hyperalgesia was calculated using the following formula: Reversal (%)=100×(postdose ipsilateral threshold−predose ipsilateral threshold) (naïve ipsilateral threshold−predose ipsilateral threshold).

[5] = radioligand [3H]4 (example 39), membranes of 300.19 cells expressing human GPR4

Chain of mouse GPR4 (Q8BUD0 whole entry): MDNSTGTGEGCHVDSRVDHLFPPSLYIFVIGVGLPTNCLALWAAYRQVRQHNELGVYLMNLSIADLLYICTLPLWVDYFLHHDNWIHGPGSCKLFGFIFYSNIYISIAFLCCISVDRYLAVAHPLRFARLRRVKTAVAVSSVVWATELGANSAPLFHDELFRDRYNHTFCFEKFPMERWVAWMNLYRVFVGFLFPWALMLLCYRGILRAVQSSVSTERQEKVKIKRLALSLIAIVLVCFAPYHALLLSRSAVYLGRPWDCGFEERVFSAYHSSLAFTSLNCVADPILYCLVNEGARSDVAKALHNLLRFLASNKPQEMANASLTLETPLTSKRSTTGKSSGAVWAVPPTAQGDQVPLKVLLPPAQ
Chain of rat GPR4 (Q4KLH9 whole entry): as the sequence (Q8BUD0 whole entry) above, with G8W, H51R, S339T counted along it
T1 sequence (P46093 whole entry): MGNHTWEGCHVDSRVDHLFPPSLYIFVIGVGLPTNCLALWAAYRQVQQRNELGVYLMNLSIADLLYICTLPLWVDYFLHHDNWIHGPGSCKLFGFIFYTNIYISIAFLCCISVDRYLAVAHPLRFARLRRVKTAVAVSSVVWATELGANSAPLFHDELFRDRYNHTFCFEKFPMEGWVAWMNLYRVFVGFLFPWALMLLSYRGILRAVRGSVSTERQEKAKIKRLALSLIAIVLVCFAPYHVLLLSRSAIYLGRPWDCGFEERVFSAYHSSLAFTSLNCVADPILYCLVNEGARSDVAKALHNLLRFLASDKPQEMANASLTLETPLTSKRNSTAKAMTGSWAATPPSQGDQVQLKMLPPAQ
Chain of Human H3 (Q9Y5N1 whole entry): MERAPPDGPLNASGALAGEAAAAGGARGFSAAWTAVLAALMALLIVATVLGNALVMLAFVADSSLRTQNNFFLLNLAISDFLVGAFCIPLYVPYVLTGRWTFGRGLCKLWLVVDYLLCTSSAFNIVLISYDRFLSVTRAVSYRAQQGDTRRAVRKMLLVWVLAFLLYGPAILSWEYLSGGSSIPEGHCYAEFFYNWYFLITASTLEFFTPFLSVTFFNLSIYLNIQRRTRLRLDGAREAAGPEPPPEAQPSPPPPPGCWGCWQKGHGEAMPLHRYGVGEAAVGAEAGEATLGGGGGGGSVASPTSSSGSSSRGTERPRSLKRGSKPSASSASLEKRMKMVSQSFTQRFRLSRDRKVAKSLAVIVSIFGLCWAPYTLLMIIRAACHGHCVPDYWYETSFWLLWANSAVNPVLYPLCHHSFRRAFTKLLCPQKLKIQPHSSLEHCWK

Row | Compound | pIC50 (human GPR4 [1]; [5]) | pIC50 (human GPR4 [2]) | pIC50 (human GPR4 [3]) | pIC50 (mouse GPR4) | pIC50 (rat GPR4) | pIC50 (Human H3) | Inhibition of swelling ([4]; 90 mg/kg bid) [%] | Inhibition of swelling ([4]; 30 mg/kg bid) [%] | pIC50 (human GPR4 [1]) | % reversal of hyperalgesia (CFA-induced hyperalgesia; 3 mg/kg, 1 h) [%] | % reversal of hyperalgesia (CFA-induced hyperalgesia; 3 mg/kg, 3 h) [%] | % reversal of hyperalgesia (CFA-induced hyperalgesia; 3 mg/kg, 6 h) [%] | % reversal of hyperalgesia (CFA-induced hyperalgesia; 10 mg/kg, 1 h) [%] | % reversal of hyperalgesia (CFA-induced hyperalgesia; 10 mg/kg, 3 h) [%] | % reversal of hyperalgesia (CFA-induced hyperalgesia; 10 mg/kg, 6 h) [%] | % reversal of hyperalgesia (CFA-induced hyperalgesia; 30 mg/kg, 1 h) [%] | % reversal of hyperalgesia (CFA-induced hyperalgesia; 30 mg/kg, 3 h) [%] | % reversal of hyperalgesia (CFA-induced hyperalgesia; 30 mg/kg, 6 h) [%] | Inhibition of swelling ([4]; 60 mg/kg bid) [%]
1 | CCc1nn2c(C)cc(C)nc2c1Cc1ccc(/C=C/CN2CCN[C@H](CO)C2)cc1 [Example 8, ((S)-4-{(E)-3-[4-(2-Ethyl-5,7-dimethyl-pyrazolo[1,5-a]pyrimidin-3-ylmethyl)-phenyl]-allyl}-piperazin-2-yl)-methanol dihydrochloride] | 7.55 | 7.29 | 7.47 | 6.42 | 6.17 | < 4.52 | 30 |  |  |  |  |  |  |  |  |  |  |  | 
2 | CCc1nn2c(C)cc(C)nc2c1Cc1ccc(OC[C@H]2CC[C@@H](N)CC2)cc1 [Example 23, 4-[4-(2-Ethyl-5,7-dimethyl-pyrazolo[1,5-a]pyrimidin-3-ylmethyl)-phenoxymethyl]-cyclohexylamine] |  | 7.72 | 7.68 | 6.58 | 5.85 | < 4.52 |  | 24 |  |  |  |  |  |  |  |  |  |  | 
3 | CCc1nn2c(C)cc(C)nc2c1Cc1ccc(-n2cc(CC3(O)CCNCC3)nn2)cc1 [Example 34, 4-{1-[4-(2-Ethyl-5,7-dimethyl-pyrazolo[1,5-a]pyrimidin-3-ylmethyl)-phenyl]-1H-[1,2,3]triazol-4-ylmethyl}-piperidin-4-ol] |  | 7.11 | 7.24 | 6.27 | 5.91 | < 4.52 |  |  | 7.11 |  |  |  |  |  |  |  |  |  | 
4 | CCc1nn2c(C)cc(C)nc2c1Cc1ccc(/C=C/CN2CCN(C[C@@H](O)CO)CC2)cc1.Cl.Cl [Example 17, (R)-3-(4-{(E)-3-[4-(2-Ethyl-5,7-dimethyl-pyrazolo[1,5-a]pyrimidin-3-ylmethyl)-phenyl]-allyl}-piperazin-1-yl)-propane-1,2-diol dihydrochloride] |  |  |  |  |  |  |  | 36 |  | 28 | 18 | 3 | 36 | 29 | 7 | 55 | 32 | 15 | 
5 | CCc1nn2c(C)cc(C)nc2c1Cc1ccc(OCCC2(O)CCNCC2)cc1 [Example 25, 4-{2-[4-(2-Ethyl-5,7-dimethyl-pyrazolo[1,5-a]pyrimidin-3-ylmethyl)-phenoxy]-ethyl}-piperidin-4-ol] | 6.96 | 7.20 | 7.28 | 6.20 | 5.68 | < 4.52 |  |  |  |  |  |  |  |  |  |  |  |  | 

The next lines start with results.

Row | pIC50 (human GPR4 [1]; [5]) | pIC50 (human GPR4 [2]) | pIC50 (human GPR4 [3]) | pIC50 (mouse GPR4) | pIC50 (rat GPR4) | pIC50 (Human H3) | Compound | Inhibition of swelling ([4]; 90 mg/kg bid) [%] | Inhibition of swelling ([4]; 30 mg/kg bid) [%] | pIC50 (human GPR4 [1]) | % reversal of hyperalgesia (CFA-induced hyperalgesia; 3 mg/kg, 1 h) [%] | % reversal of hyperalgesia (CFA-induced hyperalgesia; 3 mg/kg, 3 h) [%] | % reversal of hyperalgesia (CFA-induced hyperalgesia; 3 mg/kg, 6 h) [%] | % reversal of hyperalgesia (CFA-induced hyperalgesia; 10 mg/kg, 1 h) [%] | % reversal of hyperalgesia (CFA-induced hyperalgesia; 10 mg/kg, 3 h) [%] | % reversal of hyperalgesia (CFA-induced hyperalgesia; 10 mg/kg, 6 h) [%] | % reversal of hyperalgesia (CFA-induced hyperalgesia; 30 mg/kg, 1 h) [%] | % reversal of hyperalgesia (CFA-induced hyperalgesia; 30 mg/kg, 3 h) [%] | % reversal of hyperalgesia (CFA-induced hyperalgesia; 30 mg/kg, 6 h) [%] | Inhibition of swelling ([4]; 60 mg/kg bid) [%]
6 | 7.82 | 7.96 | 7.77 | 7.15 | 6.79 | < 4.52 | CCc1nn2c(C)cc(C)nc2c1Cc1ccc(/C=C/C[C@]2(O)CCN[C@@H](C)C2)cc1 [Example 5, (2S,4S)-4-{(E)-3-[4-(2-Ethyl-5,7-dimethyl-pyrazolo[1,5-a]pyrimidin-3-ylmethyl)-phenyl]-allyl}-2-methyl-piperidin-4-ol] |  |  |  |  |  |  |  |  |  |  |  |  | 
7 | 7.23 | 7.09 | 7.19 | 6.29 | 5.58 | < 4.52 | CCc1nn2c(C)cc(C)nc2c1Cc1ccc(OCCN2CCN[C@@H](COC)C2)cc1 [Example 27, 2-Ethyl-3-{4-[2-((R)-3-methoxymethyl-piperazin-1-yl)-ethoxy]-benzyl}-5,7-dimethyl-pyrazolo[1,5-a]pyrimidine] |  |  |  |  |  |  |  |  |  |  |  |  | 
8 |  | 8.15 | 7.17 | 6.41 | 5.77 | 5.31 | CCc1nn2c(C)cc(C)nc2c1Cc1ccc(/C=C/CN2CCN[C@@H](CN(C)C)C2)cc1 [Example 13, ((S)-4-{(E)-3-[4-(2-Ethyl-5,7-dimethyl-pyrazolo[1,5-a]pyrimidin-3-ylmethyl)-phenyl]-allyl}-piperazin-2-ylmethyl)-dimethyl-amine trihydrochloride] |  |  | 8.15 |  |  |  |  |  |  |  |  |  | 
9 | 7.46 | 6.92 | 7.39 | 6.70 | 6.08 | < 4.52 | CCc1nn2c(C)cc(C)nc2c1Cc1ccc(/C=C/CN2CCN(C(=O)[C@H]3NCC[C@H]3O)CC2)cc1 [Example 16, (4-{(E)-3-[4-(2-Ethyl-5,7-dimethyl-pyrazolo[1,5-a]pyrimidin-3-ylmethyl)-phenyl]-allyl}-piperazin-1-yl)-((2S,3R)-3-hydroxy-pyrrolidin-2-yl)-methanone dihydrochloride] |  |  |  |  |  |  |  |  |  |  |  |  | 
10 | 6.93 | 6.74 | 7.31 | 6.16 | 5.64 | 4.70 | CCc1nn2c(C)cc(C)nc2c1Cc1ccc(-n2cc(CN3CC(O)C3)cn2)cc1 [Example 28, 1-{1-[4-(2-Ethyl-5,7-dimethyl-pyrazolo[1,5-a]pyrimidin-3-ylmethyl)-phenyl]-1H-pyrazol-4-ylmethyl}-azetidin-3-ol] | 25 |  |  |  |  |  |  |  |  |  |  |  | 
11 | 7.37 | 7.21 | 7.28 | 6.29 | 5.88 | < 4.52 | CCc1nn2c(C)cc(C)nc2c1Cc1ccc(-n2cc(CN3CCNCC3)cn2)cc1 [Example 31, 2-Ethyl-5,7-dimethyl-3-[4-(4-piperazin-1-ylmethyl-pyrazol-1-yl)-benzyl]-pyrazolo[1,5-a]pyrimidine] |  | 24 |  |  |  |  |  |  |  |  |  |  | 38
